Data on one compound can be found in ChEMBL document CHEMBL1125643, “N-(5-fluorobenzothiazol-2-yl)-2-guanidinothiazole-4-carboxamide. A novel, systemically active antitumor agent effective against 3LL Lewis lung carcinoma” (J Med Chem, 1991).

A short description of data set [1]: Drug related lethality is percent animals in treated groups dying prior to first tumor related death in untreated groups measured in BDF1 mice after ip administration at 50 mg/kg dose 2-4 days after tumor challenge. The arrangement: dose 50 mg/kg, route intraperitoneal. The settings on record: BDF1, mus sp., in vivo, read-out: Lethality. The data set is classed as toxicity, organism-based.

The subject of data set [2] is Mus sp. The data set is described as follows: In vivo activity measured against 3LL metastasis in BDF1 mice after ip administration at 100 mg/kg dose, dosing on days 2-4 after tumor challenge. The data set is classed as functional. The settings on record: route intraperitoneal.
The subject of data set [3] is Mus sp. In words: In vivo activity measured against 3LL metastasis in BDF1 mice after ip administration at 100 mg/kg dose, dosing on days 3-6 after tumor challenge. The data set is classed as functional. The settings on record: route intraperitoneal.
The subject of data set [4] is Mus sp. In words: In vivo activity measured against 3LL metastasis in BDF1 mice after ip administration at 200 mg/kg dose, dosing on days 2-4 after tumor challenge. The data set is classed as functional. Particulars: route intraperitoneal.
The test system of data set [5] is Mus sp. In words: In vivo activity measured against 3LL metastasis in BDF1 mice after ip administration at 25 mg/kg dose, dosing on days 2-4 after tumor challenge. The data set is classed as functional. The settings on record: route intraperitoneal.
Data set [6] relates to Mus sp. In words: In vivo activity measured against 3LL metastasis in BDF1 mice after ip administration at 50 mg/kg dose, dosing on days 2-4 after tumor challenge. The data set is classed as functional. The settings on record: route intraperitoneal.
Data set [7] concerns Mus sp. The data set is described as follows: In vivo activity measured against 3LL metastasis in BDF1 mice after ip administration at 50 mg/kg dose, dosing on days 3-6 after tumor challenge. The data set is classed as functional. Particulars: route intraperitoneal.
The nature of data set [8]: Drug related lethality is percent animals in treated groups dying prior to first tumor related death in untreated groups measured in BDF1 mice after ip administration at 25 mg/kg dose 2-4 days after tumor challenge. The data set is classed as toxicity, organism-based. The arrangement: dose 25 mg/kg, route intraperitoneal. The settings on record: BDF1, mus sp., in vivo, read-out: Lethality.

A short description of data set [9]: Drug related lethality is percent animals in treated groups dying prior to first tumor related death in untreated groups measured in BDF1 mice after ip administration at 100 mg/kg dose 2-4 days after tumor challenge. The arrangement: dose 100 mg/kg, route intraperitoneal. The settings on record: BDF1, mus sp., in vivo, read-out: Lethality. The data set is classed as toxicity, organism-based.

The nature of data set [10]: Drug related lethality is percent animals in treated groups dying prior to first tumor related death in untreated groups measured in BDF1 mice after ip administration at 100 mg/kg dose 3-6 days after tumor challenge. The data set is classed as toxicity, organism-based. Also noted: dose 100 mg/kg, route intraperitoneal. Particulars: BDF1, mus sp., in vivo, read-out: Lethality.

The nature of data set [11]: Drug related lethality is percent animals in treated groups dying prior to first tumor related death in untreated groups measured in BDF1 mice after ip administration at 200 mg/kg dose 2-4 days after tumor challenge. The data set is classed as toxicity, organism-based. Also noted: dose 200 mg/kg, route intraperitoneal. The settings on record: BDF1, mus sp., in vivo, read-out: Lethality.

As usually defined, the T/C is the result in the treated group divided by that in the control group, in per cent. Turning to `O=c1[nH]cc(F)c(=O)[nH]1` [FLUOROURACIL], the mortality in [1] is 0%; in data set [8], 0%; in data set [9] it was 0%; in data set [10], 14%; in data set [11], 28%. Also, the T/C is recorded as 127% in data set [2]; 125% in data set [3]; 141% in data set [4]; 114% in data set [5]; 118% in [6]; 109% in [7].
